Reference: patent publication USRE48461E1, “Modulation of androgen receptor expression” (Ionis Pharmaceuticals, Inc., priority 2012, dated 2021)
Oligonucleotides are written 5' to 3', each unit as a sugar letter and its base; * is a phosphorothioate linkage, no mark a phosphodiester; rarer units and linkages stand in square brackets, end groups in braces. Plain capitals give the bases only. k = constrained ethyl (cEt); [5mC] = 5-methylcytosine; d = 2'-deoxy (DNA)

How the values were obtained:
[1] = system: AR mRNA; test: Dose-dependent antisense inhibition of human AR in HuVEC cells (electroporation, qRT-PCR RTS3559, IC50); assay type: cell-based
Procedure, shortened: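 HuVEC cells dosed with antisense oligonucleotides by electroporation and treated approximately 16 hours. AR mRNA quantified by real-time qPCR with primer probe set RTS3559 and normalised to total RNA by RIBOGREEN; IC50 from dose-response.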

[2] = system: AR mRNA; test: Antisense inhibition of human AR in HuVEC cells, single concentration (electroporation, qRT-PCR RTS3559); assay type: cell-based
Procedure, shortened: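 AR mRNA levels were measured with human primer-probe set RTS3559 and adjusted for total RNA (RIBOGREEN). Cells were HuVEC, with each antisense oligonucleotide delivered by electroporation at one concentration.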

[3] = Table 31, 46.9 nM, HuVEC, electroporation, approximately 16 hours
[4] = Table 31, 187.5 nM, HuVEC, electroporation, approximately 16 hours
[5] = Table 31, 750.0 nM, HuVEC, electroporation, approximately 16 hours
[6] = Table 31, 3000.0 nM, HuVEC, electroporation, approximately 16 hours
[7] = Table 31, HuVEC, electroporation, approximately 16 hours
[8] = Table 30, 46.9 nM, HuVEC, electroporation, approximately 16 hours
[9] = Table 30, 187.5 nM, HuVEC, electroporation, approximately 16 hours
[10] = Table 30, 750.0 nM, HuVEC, electroporation, approximately 16 hours
[11] = Table 30, 3000.0 nM, HuVEC, electroporation, approximately 16 hours
[12] = Table 30, HuVEC, electroporation, approximately 16 hours

Substance: 583559 (antisense kA*kG*kT*d[5mC]*dT*dT*dT*dA*dG*d[5mC]*dA*dG*d[5mC]*kT*kT*kT) [compound 583559]
- percent inhibition of AR, 46.9 nM ([1]; Table 29, 46.9 nM, HuVEC, electroporation, approximately 16 hours): 30%
- percent inhibition of AR, 187.5 nM ([1]; Table 29, 187.5 nM, HuVEC, electroporation, approximately 16 hours): 49%
- percent inhibition of AR, 750.0 nM ([1]; Table 29, 750.0 nM, HuVEC, electroporation, approximately 16 hours): 63%
- percent inhibition of AR, 3000.0 nM ([1]; Table 29, 3000.0 nM, HuVEC, electroporation, approximately 16 hours): 80%
- IC50 ([1]; Table 29, HuVEC, electroporation, approximately 16 hours): 0.22 µM
- % inhibition ([2]; 500 nM ASO, ~24 h, Table 16): 52%

Substance: 586225 (kG*kT*kT*kG*kA*dT*dT*dT*dA*dA*dT*dG*dG*kT*kT*kG; antisense) [compound 586225]
- percent inhibition of AR ([1]; 46.9 nM, HuVEC, ~16 h, Table 15): 17%
- percent inhibition of AR ([1]; 187.5 nM, HuVEC, ~16 h, Table 15): 61%
- percent inhibition of AR ([1]; 750.0 nM, HuVEC, ~16 h, Table 15): 89%
- percent inhibition of AR ([1]; 3000.0 nM, HuVEC, ~16 h, Table 15): 97%
- IC50 ([1]; HuVEC cells, electroporation): 0.13 µM
- inhibition of AR mRNA at 46.9 nM ([1]; HuVEC cells, electroporation, 46.9 nM ASO): 17%
- inhibition of AR mRNA at 187.5 nM ([1]; HuVEC cells, electroporation, 187.5 nM ASO): 61%
- inhibition of AR mRNA at 750.0 nM ([1]; HuVEC cells, electroporation, 750.0 nM ASO): 89%
- inhibition of AR mRNA at 3000.0 nM ([1]; HuVEC cells, electroporation, 3000.0 nM ASO): 97%
- IC50 ([1]; HuVEC, ~16 h, Table 15): 0.13 µM
- % inhibition ([2]; 1,000 nM ASO, ~24 h, Table 13): 88%

Substance: 583719 (antisense kG*kT*kA*dG*dG*dT*d[5mC]*dT*dT*dG*dG*dA*d[5mC]*kG*kG*k[5mC]) [compound 583719]
- percent inhibition of AR, 46.9 nM [1, 3]: 22%
- percent inhibition of AR, 187.5 nM [1, 4]: 46%
- percent inhibition of AR, 750.0 nM [1, 5]: 65%
- percent inhibition of AR, 3000.0 nM [1, 6]: 72%
- IC50 [1, 7]: 0.32 µM
- % inhibition ([2]; 500 nM ASO, ~24 h, Table 18): 36%

Substance: 583996 (k[5mC]*kG*k[5mC]*d[5mC]*dA*dG*dG*dG*dT*dA*d[5mC]*d[5mC]*dA*k[5mC]*kA*k[5mC]; antisense) [compound 583996]
- percent inhibition of AR, 46.9 nM ([1]; Table 34, 46.9 nM, HuVEC, electroporation, approximately 16 hours): 26%
- percent inhibition of AR, 187.5 nM ([1]; Table 34, 187.5 nM, HuVEC, electroporation, approximately 16 hours): 12%
- percent inhibition of AR, 750.0 nM ([1]; Table 34, 750.0 nM, HuVEC, electroporation, approximately 16 hours): 50%
- percent inhibition of AR, 3000.0 nM ([1]; Table 34, 3000.0 nM, HuVEC, electroporation, approximately 16 hours): 70%
- IC50 ([1]; Table 34, HuVEC, electroporation, approximately 16 hours): 0.71 µM
- % inhibition ([2]; Table 22, 500 nM oligonucleotide, electroporation, approximately 24 hours, relative to untreated control): 33%

Substance: 583851 (kG*kT*kG*dG*dG*dA*d[5mC]*dG*d[5mC]*dA*d[5mC]*dA*dG*k[5mC]*kG*kG; antisense) [compound 583851]
- percent inhibition of AR, 46.9 nM ([1]; Table 33, 46.9 nM, HuVEC, electroporation, approximately 16 hours): 8%
- percent inhibition of AR, 187.5 nM ([1]; Table 33, 187.5 nM, HuVEC, electroporation, approximately 16 hours): 24%
- percent inhibition of AR, 750.0 nM ([1]; Table 33, 750.0 nM, HuVEC, electroporation, approximately 16 hours): 54%
- percent inhibition of AR, 3000.0 nM ([1]; Table 33, 3000.0 nM, HuVEC, electroporation, approximately 16 hours): 76%
- IC50 ([1]; Table 33, HuVEC, electroporation, approximately 16 hours): 0.61 µM
- % inhibition ([2]; Table 20, 500 nM oligonucleotide, electroporation, approximately 24 hours, relative to untreated control): 33%

Substance: 583790 (antisense kG*kT*kT*dG*d[5mC]*dA*dT*dG*dG*dT*dG*d[5mC]*dT*kG*kG*k[5mC]) [compound 583790]
- percent inhibition of AR, 46.9 nM [1, 3]: 17%
- percent inhibition of AR, 187.5 nM [1, 4]: 42%
- percent inhibition of AR, 750.0 nM [1, 5]: 65%
- percent inhibition of AR, 3000.0 nM [1, 6]: 81%
- IC50 [1, 7]: 0.32 µM
- % inhibition ([2]; Table 19, 500 nM oligonucleotide, electroporation, approximately 24 hours, relative to untreated control): 39%

Substance: 583692 (antisense kG*kT*kG*dA*dT*dG*dA*dT*dG*d[5mC]*dG*dG*dT*kA*kG*kT) [compound 583692]
- percent inhibition of AR, 46.9 nM [1, 8]: 8%
- percent inhibition of AR, 187.5 nM [1, 9]: 47%
- percent inhibition of AR, 750.0 nM [1, 10]: 61%
- percent inhibition of AR, 3000.0 nM [1, 11]: 71%
- IC50 [1, 12]: 0.44 µM
- % inhibition ([2]; 500 nM ASO, ~24 h, Table 18): 41%

Substance: 583734 (antisense kT*k[5mC]*kA*d[5mC]*dT*dT*d[5mC]*dG*d[5mC]*dG*d[5mC]*dA*d[5mC]*kG*k[5mC]*kT) [compound 583734]
- percent inhibition of AR, 46.9 nM [1, 8]: 29%
- percent inhibition of AR, 187.5 nM [1, 9]: 60%
- percent inhibition of AR, 750.0 nM [1, 10]: 74%
- percent inhibition of AR, 3000.0 nM [1, 11]: 75%
- IC50 [1, 12]: 0.12 µM
- % inhibition ([2]; 500 nM ASO, ~24 h, Table 18): 46%
